Measurements reported in ChEMBL document CHEMBL1157656, “Fragment-based deconstruction of Bcl-xL inhibitors” (J Med Chem, 2010).
Counter-ions that a name gives are not always drawn. Values belong to the compound of their own block, whether it stands above or below them.

How the values were obtained:
Bcl-2-like protein 1 [1] = target: T1, Bcl-2-like protein 1 (Homo sapiens, UniProt Q07817); experiment: Inhibition of Bcl-xL
Bcl-2-like protein 1 [2] = target: T1, Bcl-2-like protein 1; experiment: Inhibition of Bcl-xL expressed in Saccharomyces cerevisiae
Bcl-2-like protein 1 [3] = target: T1, Bcl-2-like protein 1; experiment: Binding affinity to 6xHis-tagged human Bcl-xL

T1 sequence (Q07817 whole entry): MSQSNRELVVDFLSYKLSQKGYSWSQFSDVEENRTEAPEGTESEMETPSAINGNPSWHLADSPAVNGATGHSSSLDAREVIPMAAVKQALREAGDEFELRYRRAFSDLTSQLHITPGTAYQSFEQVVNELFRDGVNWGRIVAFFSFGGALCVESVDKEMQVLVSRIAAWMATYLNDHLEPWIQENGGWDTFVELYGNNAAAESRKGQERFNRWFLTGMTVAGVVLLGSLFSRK

SMILES: Cc1cc2c(C(C)C)c(O)c(O)c(C=O)c2c(O)c1-c1c(C)cc2c(C(C)C)c(O)c(O)c(C=O)c2c1O [GOSSYPOL]
IC50 (Bcl-2-like protein 1 [1]): 480 nM

IC50 (Bcl-2-like protein 1 [2]): 4.69 µM
SMILES: COC1=CC(c2cc3ccccc3[nH]2)=N/C1=C\c1[nH]c(C)cc1C [OBATOCLAX MESYLATE]

SMILES: Oc1ccccc1-c1ccccc1 [2-PHENYLPHENOL]
Kd (Bcl-2-like protein 1 [3]): 2.7 mM
